ChEMBL document CHEMBL5214950 (Bioorg Med Chem Lett, 2022)

Legend:
Cytochrome P450 2B6 [1] = molecular target: T1, Cytochrome P450 2B6 (Homo sapiens, UniProt P20813); experiment: Drug metabolism assessed as CYP2B6 (unknown origin)-mediated d4-BuOH metabolite formation by measuring km; assay type: ADME
T1 sequence (P20813 whole entry): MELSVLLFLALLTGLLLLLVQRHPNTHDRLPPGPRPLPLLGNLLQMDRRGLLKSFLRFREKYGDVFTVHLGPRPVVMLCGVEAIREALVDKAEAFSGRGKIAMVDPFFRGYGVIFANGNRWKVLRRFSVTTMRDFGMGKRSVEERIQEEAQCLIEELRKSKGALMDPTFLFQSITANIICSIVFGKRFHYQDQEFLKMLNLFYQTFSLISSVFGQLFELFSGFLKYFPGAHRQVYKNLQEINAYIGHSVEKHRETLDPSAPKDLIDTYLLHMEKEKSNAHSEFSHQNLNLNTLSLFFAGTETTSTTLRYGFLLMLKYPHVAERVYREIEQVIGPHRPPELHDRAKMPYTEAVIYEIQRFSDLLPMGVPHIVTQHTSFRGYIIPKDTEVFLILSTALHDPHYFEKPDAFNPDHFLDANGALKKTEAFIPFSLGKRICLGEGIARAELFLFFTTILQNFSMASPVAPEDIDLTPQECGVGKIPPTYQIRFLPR

Cytochrome P450 2B6 [2] = molecular target: T1, Cytochrome P450 2B6; experiment: Drug metabolism assessed as CYP2B6 (unknown origin)-mediated d4-BuOH metabolite formation by measuring Kcat; assay type: ADME
Cytochrome P450 2B6 [3] = molecular target: T1, Cytochrome P450 2B6; experiment: Binding affinity to recombinant CYP2B6 (unknown origin) assessed as spectral dissociation constant-1; details: read-out: Ks
Cytochrome P450 2B6 [4] = molecular target: T1, Cytochrome P450 2B6; experiment: Drug metabolism assessed as CYP2B6 (unknown origin)-mediated d9-BuOH metabolite formation by measuring km; assay type: ADME
Cytochrome P450 2B6 [5] = molecular target: T1, Cytochrome P450 2B6; experiment: Drug metabolism assessed as CYP2B6 (unknown origin)-mediated d9-BuOH metabolite formation by measuring Kcat; assay type: ADME
Cytochrome P450 2B6 [6] = molecular target: T1, Cytochrome P450 2B6; experiment: Binding affinity to recombinant CYP2B6 (unknown origin) assessed as spectral dissociation constant-2; details: read-out: Ks
Cytochrome P450 2B6 [7] = molecular target: T1, Cytochrome P450 2B6; experiment: Drug metabolism assessed as CYP2B6 (unknown origin)-mediated metabolite formation by measuring Kcat; assay type: ADME
Cytochrome P450 2B6 [8] = molecular target: T1, Cytochrome P450 2B6; experiment: Drug metabolism assessed as CYP2B6 (unknown origin)-mediated metabolite formation by measuring km; assay type: ADME

Compound	Km (Cytochrome P450 2B6 [1]) [µM]	Kcat (Cytochrome P450 2B6 [2]) [s⁻¹]	Kd (Cytochrome P450 2B6 [3]) [µM]	Km (Cytochrome P450 2B6 [4]) [µM]	Kcat (Cytochrome P450 2B6 [5]) [s⁻¹]	Kd (Cytochrome P450 2B6 [6]) [µM]	Kcat (Cytochrome P450 2B6 [7]) [s⁻¹]	Km (Cytochrome P450 2B6 [8]) [µM]
[2H]C([2H])([2H])[C@@]([2H])(NC(C)(C)C)C(=O)c1cccc(Cl)c1	266	0.061	11300	–	–	–	–	–
[2H]C([2H])([2H])C(N[C@@]([2H])(C)C(=O)c1cccc(Cl)c1)(C([2H])([2H])[2H])C([2H])([2H])[2H]	–	–	10.3	279	0.02462	1140	–	–
[2H]C([2H])([2H])C(N[C@]([2H])(C)C(=O)c1cccc(Cl)c1)(C([2H])([2H])[2H])C([2H])([2H])[2H]	–	–	3.91	264	0.003865	1180	–	–
[2H]C([2H])([2H])[C@]([2H])(NC(C)(C)C)C(=O)c1cccc(Cl)c1	131	0.05578	2870	–	–	–	–	–
CC(NC(C)(C)C)C(=O)c1cccc(Cl)c1 (racemic) [BUPROPION]	–	–	314	–	–	–	0.14	94.7
